Peptide text beside a SMILES is read from it. * marks the point of attachment. FITC = O=C1OC2(c3ccc(O)cc3Oc3cc(O)ccc32)c2ccc(NC(=S)*)cc21; X1 = Cc1cc(C)n2c1C=C1C=CC(CCC(=O)*)=[N+]1[B-]2(C#N)C#N
Molecular target: T1, RSV N-RNA complex (Human respiratory syncytial virus A, UniProt P03418)
T1 construct: Full-length N was produced by co-expression with the C-terminal domain of RSV P protein in E. coli BL21(DE3); made in house; host or cells: E. coli BL21(DE3), co-transformed with pET-N and pGEX-P(161–241)
Assay: biochemical
Format: binding
Description: We carried out FP measurements using the fluorescent F11 peptide and N-RNA complex. […] No salt was added to promote high affinity.
We first measured binding of Fn peptides (200 nM) to N-RNA in Tris buffer by FP (Figure 5A,B). […] We fitted the data with ΔFPmax and Kd as parameters.
We therefore measured fluorescein FP in the presence of N-RNA. […] To test if fluorescein binds to the P-binding site on the N-RNA, we carried out a competition experiment with M76 (Figure 6C).
We first performed FP measurements in salt-free Tris pH 8 buffer (Figure 8A). We measured binding curves using 200 nM of fluorescent peptides.
Fluorescence polarization measurements were carried out on a Paradigm Detection Platform (Beckman Coulter, Brea, CA, USA) operating with a microplate reader, a fluorescein detection cartridge (excitation range 485/20 nm, emission range 535/25 nm for both parallel and perpendicular components) and the SpectraMax Pro 6.1 software (Molecular Devices, San Jose, CA, USA). Samples were placed in polystyrene black flat bottom 96-well microplates (Cellstar, Greiner bio-one, Frickenhausen, Germany) with 20 µL final volume in each well. If not stated otherwise, the final concentration of fluorescent ligands was 200 nM. The buffer was either 20 mM MES pH 6.5, salt-free or with 250 mM NaCl, or 20 mM Tris pH 8.0 salt-free or with 100 mM NaCl, supplemented with 0.01% Brij-35. Mixing was done using the corresponding plate reader option. The temperature was set to 20 °C. Data were recorded in top reading mode. Measurements were done in triplicate and after an incubation time of 30 min, if not indicated otherwise. Fluorescence polarization (FP) in mFP units was determined from the parallel (I∥) and perpendicular (I⊥) components of the emitted light according to Equation (4). A grating factor G of 1.2 was determined using 1 nM fluorescein in 1 mM NaOH and assuming a theoretical FP of 27 mFP [48]. Background signal was measured from wells containing only buffer, and the mean value was subtracted from each I∥ and I⊥ component. (4) FP (mP)=1000×(I∥−G∗I⊥)/(I∥+G×I⊥)
We assumed that the measured fluorescence polarization FP is a linear combination of the FP of the fluorescent probe in the absence of N protein (FPmin) and the FP of N-bound fluorescent probe (FPmax), weighted by the molar fraction. The molar fraction x = [P]bound/[P]0 can then be expressed as a ratio of FP differences (Equation (8)). (8) x=(FP−FPmin)/(FPmax−FPmin)=∆FP/∆FPmax
To determine the Kd value of a complex between a fluorescent probe and N protein, a series of samples with constant probe concentration and varying N concentration was measured. FP binding curves were fitted with a single binding site model and a 1:1 stoichiometry.

[1] = Kd, BCNn peptides 200 nM, Tris pH 8.0, no salt, single site model
[2] = Kd, Fn peptides 200 nM, Tris pH 8.0 without salt, single site binding model
[3] = apparent Kd, fluorescent molecules 200 nM, Tris pH 8 without salt, calculated assuming FPmax = 500 mFP
[4] = Kd, Fn peptides 200 nM, Tris pH 8.0 without salt, single site model combined with linear contribution (*)

## Cc1cc(C)n2c1C=C1C=CC(CCC(=O)N[C@@H](CC(=O)O)C(=O)N[C@@H](CO)C(=O)N[C@@H](CC(=O)O)C(=O)N[C@@H](CC(N)=O)C(=O)N[C@@H](CC(=O)O)C(=O)N[C@@H](CC(C)C)C(=O)N[C@@H](CCC(=O)O)C(=O)N[C@@H](CC(C)C)C(=O)N[C@@H](CCC(=O)O)C(=O)N[C@@H](CC(=O)O)C(=O)N[C@@H](Cc3ccccc3)C(=O)O)=[N+]1[B-]2(C#N)C#N [BCN11SE] (X1-DSDNDLELEDF-OH)
[1]
  Kd: 800 nM

## O=C(O)CC[C@H](NC(=S)Nc1ccc2c(c1)C(=O)OC21c2ccc(O)cc2Oc2cc(O)ccc21)C(=O)N[C@@H](CC(=O)O)C(=O)N[C@@H](Cc1ccccc1)C(=O)O [F3, ϕ-EDF-OH] ({FITC}-Glu-Asp-Phe-OH)
[2]
  Kd: 62000 ± 19000 nM

## Cc1cc(C)n2c1C=C1C=CC(CCC(=O)N[C@@H](CC(C)C)C(=O)N[C@@H](CCC(=O)O)C(=O)N[C@@H](CC(C)C)C(=O)N[C@@H](CCC(=O)O)C(=O)N[C@@H](CC(=O)O)C(=O)N[C@@H](Cc3ccccc3)C(=O)O)=[N+]1[B-]2(C#N)C#N [BCN6E, BCN-LELEDF-OH] (X1-LELEDF-OH)
[1]
  Kd: 2300 ± 200 nM
Kd, BCNn peptides 200 nM, Tris pH 8.0, with salt (100 mM NaCl), (*) saturation not reached
  Kd: 12600 ± 1600 nM

## COC(=O)c1ccccc1-c1c2ccc(=O)cc-2oc2cc(O)ccc12 [Fluorescein methyl ester 2, fluorescein methyl ester]
[3]
  Kd: 200000 ± 8000 nM

## Cc1cc(C)n2c1C=C1C=CC(CCC(=O)N[C@@H](CCC(=O)O)C(=O)N[C@@H](CC(=O)O)C(=O)N[C@@H](CC(N)=O)C(=O)N[C@@H](CC(=O)O)C(=O)N[C@@H](CC(C)C)C(=O)N[C@@H](CCC(=O)O)C(=O)N[C@@H](CC(C)C)C(=O)N[C@@H](CCC(=O)O)C(=O)N[C@@H](CC(=O)O)C(=O)N[C@@H](Cc3ccccc3)C(=O)O)=[N+]1[B-]2(C#N)C#N [BCN10EE] (X1-EDNDLELEDF-OH)
[1]
  Kd: 160 ± 30 nM

## O=C(O)c1ccccc1-c1c2ccc(=O)cc-2oc2cc(O)ccc12 [Fluorescein 1, Fluorescein]
[3]
  Kd: 91000 ± 5000 nM

## Cc1cc(C)n2c1C=C1C=CC(CCC(=O)O)=[N+]1[B-]2(C#N)C#N [dicyano BODIPY FL 5, 3-(5,5-dicyano-7,9-dimethyl-5H-4λ^4,5λ^4-dipyrrolo[1,2-c:2′,1′-f][1,3,2]diazaborinin-3-yl)propanoic acid]
200 nM probe, Tris pH 8 without salt, also bound to N-RNA
  FP values compared to fluorescein at the same N-RNA concentrations: markedly lower

## CC(C)C[C@H](NC(=O)[C@H](CCC(=O)O)NC(=O)[C@H](CC(C)C)NC(=O)[C@H](CC(=O)O)NC(=O)[C@H](CC(N)=O)NC(=O)[C@H](CC(=O)O)NC(=O)[C@H](CO)NC(=O)[C@H](CC(=O)O)NC(=S)Nc1ccc2c(c1)C(=O)OC21c2ccc(O)cc2Oc2cc(O)ccc21)C(=O)N[C@@H](CCC(=O)O)C(=O)N[C@@H](CC(=O)O)C(=O)N[C@@H](Cc1ccccc1)C(=O)O [F11SE, ϕ-DS232DNDLE237LEDF-OH] ({FITC}-DSDNDLELEDF-OH)
[2]
  Kd: < 1000 nM
[4]
  Kd: 620 nM

## CC(C)C[C@H](NC(=S)Nc1ccc2c(c1)C(=O)OC21c2ccc(O)cc2Oc2cc(O)ccc21)C(=O)N[C@@H](CCC(=O)O)C(=O)N[C@@H](CC(=O)O)C(=O)N[C@@H](Cc1ccccc1)C(=O)O [F4, ϕ-LEDF-OH] ({FITC}-LEDF-OH)
[2]
  Kd: 35000 ± 4000 nM

## CC(C)C[C@H](NC(=O)[C@H](CCC(=O)O)NC(=O)[C@H](CC(C)C)NC(=O)[C@H](CC(=O)O)NC(=O)[C@H](CC(N)=O)NC(=O)[C@H](CC(=O)O)NC(=O)[C@H](CCC(=O)O)NC(=O)[C@H](CC(=O)O)NC(=S)Nc1ccc2c(c1)C(=O)OC21c2ccc(O)cc2Oc2cc(O)ccc21)C(=O)N[C@@H](CCC(=O)O)C(=O)N[C@@H](CC(=O)O)C(=O)N[C@@H](Cc1ccccc1)C(=O)O [F11EE, ϕ-DE232DNDLE237LEDF-OH] ({FITC}-DEDNDLELEDF-OH)
Fn peptides 200 nM, Tris pH 8.0 without salt, single site binding model
  ΔFPmax: 114 ± 6 mFP
Fn peptides 200 nM, Tris pH 8.0 without salt, single site model combined with linear contribution (*)
  ΔFPmax: 93 ±13 mFP
[4]
  Kd: 150 nM
Tris pH 8.0 without salt
  increase of affinity relative to F11 by phosphomimetic substitutions: 20 fold

## CC(C)C[C@H](NC(=O)[C@H](CCC(=O)O)NC(=O)[C@H](CC(C)C)NC(=O)[C@H](CC(=O)O)NC(=S)Nc1ccc2c(c1)C(=O)OC21c2ccc(O)cc2Oc2cc(O)ccc21)C(=O)N[C@@H](CCC(=O)O)C(=O)N[C@@H](CC(=O)O)C(=O)N[C@@H](Cc1ccccc1)C(=O)O [F7E, ϕ-DLE237LEDF-OH] ({FITC}-DLELEDF-OH)
[2]
  Kd: 2500 ± 300 nM

Source: article PMC9820559, “Investigation of the Fuzzy Complex between RSV Nucleoprotein and Phosphoprotein to Optimize an Inhibition Assay by Fluorescence Polarization” (International Journal of Molecular Sciences, 2022)
